The values that follow come from US20240091306A1 (Dompe' Farmaceutici SPA, priority 2020, published 2024).

Test [1] has as its system HUVECs. Put plainly: Angiogenic activity assay on BME-coated wells, stressed HUVECs. It counts as cell-based, human. As to the method: (§1) Low passage HUVECs were grown under stressed (serum starved; 0.5% FBS) conditions for 16 h in endothelial basal medium (EBM) and then harvested and resuspended in complete medium containing 10% FBS.
(§2) Cells were seeded (5×10^4 cells per well) in wells coated with growth factor-reduced Cultrex basement membrane extract (BME; Trevigen Gaithersburg, MD, USA) and left untreated (NT) or treated with 10 ng/ml of GST, p24, p17 or each p17-derived peptide F1 to F8.
Data are the means±SD of three independent experiments with similar results.
Statistical analysis was performed by one-way ANOVA and the Bonferroni post-test was used to compare data (***P<0.001).

In test [2] the test system is HUVECs. Kind of test: Angiogenic activity assay under normal and stressed condition. The following applies: 10 ng/ml. It counts as cell-based, human. The procedure: Low passage HUVECs were grown under normal (10% FBS) or stressed (serum starved; 0.5% FBS) conditions for 16 h in endothelial basal medium (EBM) and then harvested and resuspended in complete medium containing 10% FBS. […]
An EPO-derived 11 amino acids-long peptide (EPO peptide—SEQ ID No. 10) and a F3-derived 16 amino acids-long peptide (F3S—SEQ ID No. 9) were synthetized and tested at 10 ng/ml for their angiogenic activity under the same procedure of Example 7.

In test [3] the test system is full-thickness excisional skin wounds. Kind of test: In vivo wound-healing assay in diabetic mice. Also on record: species or system spontaneously diabetic (db/db) mice. Conditions: db/db mice, topical daily, 1.0 μg/50 μL days 0 to 7 and 10 μg/50 μL days 8 to 13; days 8 to 14 (p≤0.035). From the text:
Patients with diabetes are prone to impaired wound healing, with foot ulceration being particularly prevalent. This delay in wound healing also extends to animal models of diabetes. The impact of the EPO peptide (DSRVLERYLLE, corresponding to SEQ ID No. 10) on wound healing was therefore investigated by in vivo experiments on spontaneously diabetic (db/db) mice (i.e., BKS.Cg-m Dock7^m+/+Lepr^db/J mice).
In this study, the healing of full-thickness excisional skin wounds on the flanks of diabetic mice in receipt of the EPO peptide was compared to that of wounds in receipt of negative control (Water for Injection) treatment. The overall wound closure (i.e. the reduction in open wound area) was determined over time by taking scaled wound images of each wound at each assessment point.
EPO Peptide (DFL24435) was solubilized at 200 μg/mL (10 μg per 50 μL) in sterile water for injection, aliquoted into 100 μL volumes, stored at −20° C., defrosted on the day of use and diluted as necessary.
The animals were divided in a control group, that was treated with water for injection, and a EPO peptide group, that was treated with the peptide. Treatment was carried out once a day on post-wounding days 0 to 13 and the animals were sacrificed on day 14. […]

For test [4], the system named is HAECs. Kind of test: Angiogenic activity assay on HAECs. The following applies: HAECs (aorta). It counts as cell-based, human. The procedure: (§3) Human aortic endothelial cells (HAECs) and Human lung microvascular endothelial cells (HMVEC-Ls) were purchased from Clonetics (San Diego, CA, USA) and cultured in EGM-2MV (Lonza) containing 10% (vol/vol) FBS.
as §1, §2
(§4) Similar results were obtained by using human ECs derived from different origin, such as aorta (HAECs), lung (HMVEC-Ls) and lymph node (LN-LECs) (FIGS. 3, 4 and 5, respectively).

Test [5] concerns HMVEC-Ls. Put plainly: Angiogenic activity assay on HMVEC-Ls. It counts as cell-based, human. The following applies: HMVEC-Ls (lung). The procedure:
as §3, §1, §2, §4

Test [6] relates to LN-LECs. Kind of test: Angiogenic activity assay on LN-LECs. It counts as cell-based, human. Conditions: LN-LECs (lymph node). As to the method:
Human primary lymph node-derived endothelial cells (LN-LECs) have been developed and characterized as described in Norder et al, FASEB J, 2012; 26:2835-2846.
LN-LECs were cultured in EGM (Lonza) containing 10% FBS and supplemented with VEGF-C (25 ng/ml) (Reliatech, Wolfenbuettel, Germany).
as §1, §2, §4

In test [7] the test system is HUVECs. Kind of test: Wound-healing assay (EC migration). In kind it is cell-based, human. Conditions: 10 ng/ml; for effect on HUVEC migration: 12 h; for healing: after 12 h of culture. The procedure:
The involvement of peptide F2 and F3 in promoting EC migration was evaluated by performing a wound healing assay.
HUVECs were plated on 24-well plates (10^5 cells per well) in complete medium containing 10% FBS. Confluent monolayers were nutrient starved for 16 h and then scratched using a 200 μI pipette tip. After being washed, cells were left untreated or treated with 10 ng/ml of GST, p24, p17, or each p17-derived peptide F1 to F8.

The test system of test [8] is aortic rings. Put plainly: Rat aortic ring assay (ex vivo). In kind it is cell-based, Sprague-Dawley rats. Conditions: 10 days. The procedure: Briefly, the dorsal aorta was excised from 6-wk-old Sprague-Dawley rats. Rings, 1-mm thick, were embedded in collagen gel and then incubated with serum-free EBM containing PBS, peptide F2 (10 ng/ml), peptide F3 (10 ng/ml), or FGF-2 (50 ng/ml) (Thermo Fisher Scientific, Rodano, Italy). The plates were incubated for 10 days and angiogenesis was quantified by counting the number of microvessels originating from aortic rings.

For test [9], the system named is chick chorioallantoic membrane (CAM). Kind of test: Chick chorioallantoic membrane (CAM) assay. It counts as in vivo, White Leghorn chicken. The following applies: 100 ng on gelatin sponge, day 12. The procedure:
The vasculogenic activity of peptide F2 and F3 was further characterized by in vivo experiments by using the chick chorioallantoic membrane (CAM) assay.
Fertilized White Leghorn chicken eggs (30 per group) were incubated at 37° C. at constant humidity. On day 3, a square window was opened in the shell, and 2-3 ml of albumin was removed to allow detachment of the developing CAM. The window was sealed with a glass, and the eggs were returned to the incubator. On day 8, eggs were treated with 1 mm 3 sterilized gelatin sponges (Gelfoam; Upjohn, Kalamazoo, MI, USA) placed on top of the growing CAM, as described in Ribatti D et al, Nat Protoc, 2006; 1:85-91, and loaded with 1 μl of PBS (negative control), 1 μl of PBS containing 100 ng of peptide F2 or F3. CAMs were examined daily until day 12 and photographed in ovo with a stereomicroscope equipped with a camera and image analyzer system (Olympus, Hamburg, Germany). At day 12, the angiogenic response was evaluated by the image analyzer system and counted as the number of vessels converging toward the sponge.

Test [10] concerns HUVECs. Kind of test: Angiogenic activity assay with CXCR1 and CXCR2 inhibition. In kind it is cell-based, human. Conditions: stressed HUVECs, peptide 10 ng/ml, preincubation 1 hour with 2.5 μg/ml mAb. The procedure: as §1
Cells were seeded (5×10^4 cells per well) in wells coated with growth factor-reduced Cultrex basement membrane extract (BME; Trevigen Gaithersburg, MD, USA) and left untreated (NT) or treated with 10 ng/ml of each p17-derived peptide F1 or F2, after preincubation for 1 hour at 37° C. with 2.5 μg/ml of a control isotype-matched mAb (Ctrl mAb), a neutralizing mAb to CXCR1 and/or a neutralizing mAb to CXCR2.

The subject of test [11] is endothelial cells. Put plainly: Involvement of autophagy-based pathway in angiogenic activity. In kind it is cell-based.
For test [12] the following is noted: He W et al. 2019; cited from earlier work.
The target in test [13] is CXCR1 (Homo sapiens, UniProt P25024). The following applies: He W et al. 2019; cited from earlier work.
CXCR1, sequence (P25024 whole entry): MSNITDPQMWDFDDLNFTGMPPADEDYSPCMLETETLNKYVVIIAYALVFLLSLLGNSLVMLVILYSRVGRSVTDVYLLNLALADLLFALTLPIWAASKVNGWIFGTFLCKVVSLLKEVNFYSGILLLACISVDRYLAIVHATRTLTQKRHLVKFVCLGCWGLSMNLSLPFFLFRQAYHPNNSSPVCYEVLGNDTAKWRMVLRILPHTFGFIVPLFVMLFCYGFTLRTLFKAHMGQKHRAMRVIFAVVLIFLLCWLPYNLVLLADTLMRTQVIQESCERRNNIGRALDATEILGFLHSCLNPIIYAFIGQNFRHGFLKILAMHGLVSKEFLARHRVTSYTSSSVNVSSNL
Test [14] deals with CXCR2 (Homo sapiens, UniProt P25025). Conditions: He W et al. 2019; cited from earlier work.
CXCR2, sequence (P25025 whole entry): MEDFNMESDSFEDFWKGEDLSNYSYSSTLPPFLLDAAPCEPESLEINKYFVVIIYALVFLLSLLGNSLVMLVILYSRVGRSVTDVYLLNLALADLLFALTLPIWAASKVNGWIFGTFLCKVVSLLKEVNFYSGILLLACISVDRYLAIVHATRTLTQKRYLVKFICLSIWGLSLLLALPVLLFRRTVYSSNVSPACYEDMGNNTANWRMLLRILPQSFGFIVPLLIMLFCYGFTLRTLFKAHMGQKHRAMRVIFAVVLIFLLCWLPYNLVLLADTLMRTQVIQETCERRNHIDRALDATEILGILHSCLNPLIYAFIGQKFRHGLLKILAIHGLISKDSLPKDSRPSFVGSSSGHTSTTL
In test [15] the test system is B cell. Conditions: He W et al. 2019; cited from earlier work.
The mark [16] stands for this setting: HUVECs, as example 2, 10 ng of the peptide.
Where [17] appears, read: normal (10% FBS) culture conditions.
Setting [18] is: stressed (serum starved; 0.5% FBS) conditions.
The mark [19] stands for this setting: HUVECs stressed (serum starved; 0.5% FBS) 16 h, 10 ng/ml.

Consider AANELDRF [SIVcpz-derived peptide], for which the angiogenic activity result in [1] (setting [16]) was “able to significantly promote angiogenesis”.
The same measure, in the same setting: to AANELDRFLLE [SIVcpz-derived peptide] belongs “able to significantly promote angiogenesis”; to ASRELERF (ASRELERFLLE), “able to significantly promote angiogenesis”; to ASRELERFACNPELLE [peptide gor], “able to significantly promote angiogenesis”.
Same read-out and setting: to ASRELERFACNPGLME [peptide cpz] belongs “able to significantly promote angiogenesis”.
“ASRELERFAVNPGLLE [Peptide F3S, F3-derived 16 amino acids-long peptide]”: the angiogenic activity entry in [2] (setting [17]) and in test [2] (setting [18]) was “potent angiogenic activity” each time.
For ASRELERFLLE, the angiogenic activity entry in test [1] (setting [16]) is “able to significantly promote angiogenesis”.
In the case of “DSRVLERYLLE [EPO peptide, EPO-derived 11 amino acids-long peptide]”, the angiogenic activity result in test [2] (setting [17]) and in test [2] (setting [18]) was “potent angiogenic activity” each time. Further, the “wound closure (reduction in open wound area) compared to vehicle” value in test [3] is “significantly increased closure”.
As for EKIRLRPGGKKKYKLKHIVW [Peptide F2], the angiogenic activity result is listed as “endowed with angiogenic activity” in [1] (setting [19]); “potent angiogenic activity” in [4]; “potent angiogenic activity” in [5]; “potent angiogenic activity” in [6]; “promoting angiogenesis under stress condition only” in test [2] (setting [17]); “potent angiogenic activity” in [2] (setting [18]). Moreover, the “effect on HUVEC migration” value in test [7] is given as “comparable to that exerted by p17”. The substance further came in with a healing in test [7] of around 100%. In [8] (10 ng/ml), the “number of microvessels originating from aortic rings” value (“number of microvessels originating” below) came out at 55±5. Besides, in test [9], the “mean number of vessels converging toward the sponge” value was 27±4. In [10], the “effect of neutralizing mAb to CXCR1 and CXCR2 on peptide-induced angiogenesis” value was “inhibitory”. Besides, the “involvement of autophagy-based pathway in angiogenic activity” value in test [11] was “involves an autophagy-based pathway”. Moreover, in test [12], the binding to heparin entry is “capable to bind”. Moreover, the “binding to CXCR1 receptor” value in test [13] is “capable to bind”. Moreover, the “binding to CXCR2 receptor” value in test [14] is given as “capable to bind”.
With “FGF-2: FGF-2 (Thermo Fisher Scientific), positive control in aortic ring assay [reference compound]”, in test [8] (50 ng/ml), the “number of microvessels originating” value came out at 84±6.
For the substance “GARASVLSGGELDRWEKIRL [Peptide F1, p17-derived peptide, aminoacids 2 to 21 of p17]”, the “B cell growth promoting activity” value in test [15] is listed as “endowed with cell growth promoting activity”.
Turning to “KHIVWASRELERFAVNPGLL [Peptide F3, p17-derived 20 amino acid peptide]”, the angiogenic activity result in test [1] (setting [19]) was “endowed with angiogenic activity”; in test [4], “potent angiogenic activity”; in test [5], “potent angiogenic activity”; in [6] it was “potent angiogenic activity”; in test [2] (setting [17]), “promote angiogenesis”; in [2] (setting [18]), “potent angiogenic activity”. Also, the “effect on HUVEC migration” value in [7] is reported as “comparable to that exerted by p17”. Further, the healing in test [7] is recorded as around 100%. In addition, in test [8] (10 ng/ml), the “number of microvessels originating” value came to 46±8. In addition, the “mean number of vessels converging toward the sponge” value in test [9] was 30±3. For the same substance, in test [10], the “effect of neutralizing mAb to CXCR1 and CXCR2 on peptide-induced angiogenesis” value is on record as “did not impair”. Moreover, in test [11], the “involvement of autophagy-based pathway in angiogenic activity” value is “independent from autophagy”.
Consider “glutathione S-transferase [GST, reference compound]”, for which the angiogenic activity result in test [1] (setting [19]) is listed as “did not induce any pro-angiogenic activity”. In addition, in test [7], the “effect on HUVEC migration” value is reported as “did not exert any effect”.
